Test results published in patent US12589085B2, “Use of diaminoguanidine derivative and feed composition thereof in preparation of veterinary drug” (priority 2019, dated 2026).
Where two headings read alike, the source gives them in different places.

How the values were obtained:
[1] = tested on: sows suffering from endometritis; experiment: Efficacy on endometritis in postpartum sows; format: in vivo, pig; details: uterine perfusion 10 mg/kg once a day for 7 days; 30 sows
Procedure: Sows suffering from endometritis in 5 different pig farms were selected, 30 cases in each farm, 150 cases in total, were randomly divided into groups, and a non-treatment control was set up, and the sick pigs in each experimental group were perfused into the uterus. Agents, the main components of the uterine perfusion for treatment groups 1-4 were Compound 1, Compound 2, Compound 3, and Compound 4, respectively, at a dose of 10 mg/kg, and the control group was given an equal volume of normal saline. The frequency of administration is once a day for 7 consecutive days.

TA97 = experiment: Salmonella typhimurium reverse mutation assay, plate incorporation, TA97; details: positive control, TA97 −S9, 50 μg/100 μL dish
Procedure: (§1) Test strains: A set of standard test strains of TA97, TA98, TA100 and TA102 were provided by the Jiangsu Provincial Center for Disease Control and Prevention, and stored at −80° C. The test bacteria were cultured in a 37° C. water bath with shaking for 24 hours and stored at 4° C.
(§2) Enrichment culture: The main plate or the frozen-preserved strain culture was inoculated into nutrient broth, and cultivated for 10 hours at 37° C. with shaking (100 times/min). The strain culture should be more than 1˜2×10^9 viable bacteria per milliliter.
(§3) According to the physicochemical properties of the test article, the Compound 2 was prepared before test: 0.1 g of Compound 2 white powder was under UV sterilization for 2 h before test, and dissolved in 10 mL of dimethyl sulfoxide (DMSO), and then diluted to the desired concentration for the use (fresh preparation). […]
(§4) Preparation of test agent solution: 0.1 mL of test agent solution was added to each dish, and the highest concentration and volume of test agent solution to be prepared were determined according to the set maximum test dose of 10 mg/mL. The amount of the test agent to be weighed was calculated when the solution was prepared. […]
(§5) Judgment and evaluation of results: The results of each test were sorted out, and the number of strains turned into colonies was expressed as (x±SD)/dish. […]

TA98 = experiment: Salmonella typhimurium reverse mutation assay, plate incorporation, TA98; details: positive control, TA98 −S9, 50 μg/100 μL dish
Procedure: as §1, §2, §3, §4, §5

TA102 = experiment: Salmonella typhimurium reverse mutation assay, plate incorporation, TA102; details: positive control, TA102 −S9, 1.0 μL/100 μL dish
Procedure: as §1, §2, §3, §4, §5

sperm = details: oral once a day 5 days; for Total number of abnormal sperm / abnormal sperm: Amorphous / abnormal sperm: Banana shape / abnormal sperm: Double head / abnormal sperm: Double tail / abnormal sperm: Fat head / abnormal sperm: Fold tail / abnormal sperm: No hook: Day 35, 10000 sperm; for Number of Abnormal sperm (x ± SD) / Sperm deformity: Day 35, n = 10
Procedure: Experimental animals: 60 clean-grade healthy male ICR mice having the average weight of 18-20 g, purchased from the Comparative Medicine Center of Yangzhou University.
Reagents: Test agent, Compound 2, provided by Guangzhou Insighter Biotechnology Co., Ltd., was prepared into a suspension of the required concentration with 1.0% sodium carboxymethyl cellulose before use; the mutagenic positive control article of cyclophosphamide with the content of 99.00%; other reagents include sodium chloride, methanol, and eosin, all of analytical grade; self-prepared physiological saline; self-prepared eosin aqueous solution (2%).
The test article, Compound 2 was diluted with 1.0% sodium carboxymethyl cellulose as a solvent, and it was given by oral in different concentrations and the same volume. There is also a positive control and a negative (solvent) control. The cyclophosphamide was selected as the positive control (40 mg/kg).
Grouping of experimental animals: 60 healthy male mice were individually weighed, labeled and numbered, and they were divided into 5 groups with 12 mice in each group using a completely random method. It was ensured that 10 animals in each group survive for sampling and film making after administration.
Administration: The administration method is carried out according to GB15193.7-2003. The test group, the negative control and the positive control are all given the test article by oral once a day for 5 consecutive days. The weight of the mouse for each administration was weighed, and the volume of the test article that each mouse should administer was calculated according to the requirements of the mouse 0.2 mL/10 g b.w.
Sampling and sample preparation: The mice were sacrificed by cervical dislocation on the Day 35 after the first administration, and sampling and film making were performed. 10 mice were sampled in each dose group. The abdominal cavity was cut, the epididymis on both sides were separated and extracted, and put in a petri dish containing 2 mL of normal saline; The mice were longitudinally cut with ophthalmological scissors for 2 times, the normal saline in it was pipetted with a straw for several times, and let stand for 3 min; the tissue fragments were filtered with a 4-layer of lens cleaning paper, 1 drop of the filtrate was drawn onto the glass slide, the slide was pushed with 4 slides per mouse; the slide in the air dried naturally, and fixed with methanol for 10 minutes, and dried; stained with 2% eosin for 1 h, the dye solution was gently washed off with water, and it was dried naturally before microscopic examination.
Data collation and analysis: The number of normal sperm, the number of abnormal sperm and the number of various types of abnormal sperm were read and counted in each dose group of mice. The sperm abnormality rate (%) of mice in each dose group and the percentage (%) of various types of abnormal sperm were calculated, and the standard deviation of the sperm abnormality rate of mice was also calculated in each dose group. Calculation as follows:
The sperm abnormality rate of mice in each dose group was statistically compared with the sperm abnormality rate of mice in the negative (solvent) control. The experimental data was processed by SPSS 11.0 statistical software, and the analysis results were expressed as x±SD, and the incidence of sperm abnormalities was statistically processed according to the X^2 (α=0.05).
If the dose of the test group has caused the animal to die, while the sperm abnormality has not increased, the result can be judged to be negative.

N=C(N/N=C/c1ccc([N+](=O)[O-])cc1)N/N=C/c1ccc([N+](=O)[O-])cc1 [Compound 1]
Cure rate [1]: 93.3% | Treatment effects: sows cured [1]: 27 sows were cured, | Treatment effects: sows improved in symptoms [1]: 1 sow improved sows

N=C(N/N=C/c1ccc(OCc2ccccc2)cc1)N/N=C/c1ccc(OCc2ccccc2)cc1 [Compound 3]
Cure rate [1]: 90.0% | Treatment effects: sows cured [1]: 25 sows were cured, | Treatment effects: sows improved in symptoms [1]: 2 sows improved

COC(=O)c1ccc(/C=N/NC(=N)N/N=C/c2ccc(C(=O)OC)cc2)cc1 [Compound 4]
Cure rate [1]: 100% | Treatment effects: sows cured [1]: 25 sows were cured, | Treatment effects: sows improved in symptoms [1]: 5 sows improved

CN(C)c1ccc(N=NS(=O)(=O)[O-])cc1.[Na+] [Dixon, reference compound]
reverting colonies per dish (x ± SD) (TA97; First): >2000 | reverting colonies per dish (x ± SD) (TA97; Second): >2000 | reverting colonies per dish (x ± SD) (TA98; First): 932.00 ± 57.17 | reverting colonies per dish (x ± SD) (TA98; Second): >2000

COS(C)(=O)=O [Methyl Methanesulfonate, methyl methanesulfonate, reference compound]
reverting colonies per dish (x ± SD) (TA102; First): 392.67 ± 12.86 | reverting colonies per dish (x ± SD) (TA102; Second): >2000

isopropoxyphenylguanidine [Compound 2]
Total number of abnormal sperm (sperm; high 500 mg/kg): 224 | abnormal sperm: Amorphous (sperm; high 500 mg/kg): 106 | abnormal sperm: Banana shape (sperm; high 500 mg/kg): 22 | abnormal sperm: Double head (sperm; high 500 mg/kg): 5 | abnormal sperm: Double tail (sperm; high 500 mg/kg): 9 | abnormal sperm: Fat head (sperm; high 500 mg/kg): 10 | abnormal sperm: Fold tail (sperm; high 500 mg/kg): 9 | abnormal sperm: No hook (sperm; high 500 mg/kg): 63 | Number of Abnormal sperm (x ± SD) (sperm; high 500 mg/kg): 22.40 ± 1.84 | Sperm deformity (sperm; high 500 mg/kg): 2.17 ± 0.16% | Total number of abnormal sperm (sperm; low 125 mg/kg): 223 | abnormal sperm: Amorphous (sperm; low 125 mg/kg): 118 | abnormal sperm: Banana shape (sperm; low 125 mg/kg): 16 | abnormal sperm: Double head (sperm; low 125 mg/kg): 4 | abnormal sperm: Double tail (sperm; low 125 mg/kg): 6 | abnormal sperm: Fat head (sperm; low 125 mg/kg): 5 | abnormal sperm: Fold tail (sperm; low 125 mg/kg): 5 | abnormal sperm: No hook (sperm; low 125 mg/kg): 69 | Number of Abnormal sperm (x ± SD) (sperm; low 125 mg/kg): 22.30 ± 1.70 | Sperm deformity (sperm; low 125 mg/kg): 2.15 ± 0.16% | Total number of abnormal sperm (sperm; medium 250 mg/kg): 221 | abnormal sperm: Amorphous (sperm; medium 250 mg/kg): 111 | abnormal sperm: Banana shape (sperm; medium 250 mg/kg): 21 | abnormal sperm: Double head (sperm; medium 250 mg/kg): 5 | abnormal sperm: Double tail (sperm; medium 250 mg/kg): 7 | abnormal sperm: Fat head (sperm; medium 250 mg/kg): 7 | abnormal sperm: Fold tail (sperm; medium 250 mg/kg): 5 | abnormal sperm: No hook (sperm; medium 250 mg/kg): 65 | Number of Abnormal sperm (x ± SD) (sperm; medium 250 mg/kg): 22.10 ± 1.37 | Sperm deformity (sperm; medium 250 mg/kg): 2.14 ± 0.14%
